These results are taken from patent US11708348B2, “Protease inhibitors for treatment of coronavirus infections” (The Scripps Research Institute, priority 2021, dated 2023).

Some results are limits rather than exact numbers.

The subject of one test is SARS-CoV-2 strain USA-WA1/2020. The test can be described thus: microbe, parasite or virus in culture. The format is cell-based. The conditions noted are these: Severe acute respiratory syndrome coronavirus 2, HeLa-ACE2, 24 h, HeLa-ACE2 cells, SARS-CoV-2 infection, 24 h; class symbols; read-out: EC50, uM (Hela).
For `Cc1ccccc1NC(=O)C(=O)N[C@@H](Cc1ccccc1)C(=O)N[C@@H](C[C@@H]1CCNC1=O)C(=O)COc1c(F)c(F)cc(F)c1F` [Compound 106, N1-((S)-1-oxo-1-(((S)-3-oxo-1-((S)-2-oxopyrrolidin-3-yl)-4-(2,3,5,6-tetrafluorophenoxy)butan-2-yl)amino)-3-phenylpropan-2-yl)-N2-(o-tolyl)oxalamide], the EC50 is less than 0.05 µM.

Turning to `CC(C)C[C@H](NC(=O)C(=O)NCc1cc(Cl)ccc1Cl)C(=O)N[C@@H](C[C@@H]1CCNC1=O)C(=O)COc1c(F)c(F)cc(F)c1F` [Compound 59, Nl-(2,5-dichlorobenzyl)-N2-((S)-4-methyl-1-oxo-1-(((S)-3-oxo-1-((S)-2-oxopyrrolidin-3-yl)-4-(2,3,5,6-tetrafluorophenoxy)butan-2-yl)amino)pentan-2-yl)oxalamide], the half-maximal effective concentration (EC50) was in the range of 0.2 to 0.5 µM.

`CC[C@@H](OC)C(=O)N[C@@H](CC(C)C)C(=O)N[C@@H](C[C@@H]1CCNC1=O)C(=O)COC(F)(F)F` [Compound 337, (S)-2-((R)-2-methoxybutanamido)-4-methyl-N-((S)-3-oxo-1-((S)-2-oxopyrrolidin-3-yl)-4-(trifluoromethoxy)butan-2-yl)pentanamide]: the EC50 was 0.05 to 0.2 µM.

In the case of `O=C(Nc1ccccc1F)C(=O)N1[C@@H]2C[C@@H]2C[C@H]1C(=O)N[C@@H](C[C@@H]1CCNC1=O)C(=O)COC(F)(F)F` [Compound 265, (1R,S 5R)-2-(2-((2-fluorophenyl)amino)-2-oxoacetyl)-N-((S)-3-oxo-1-((S)-2-oxopyrrolidin-3-yl)-4-(trifluoromethoxy)butan-2-yl)-2-azabicyclo-[3.1.0]-hexane-3-carboxamide], the EC50 was in the range of 0.05 to 0.2 µM.

Take `CC12COC(C(=O)N3C[C@@H]4CCC[C@@H]4[C@H]3C(=O)N[C@@H](C[C@@H]3CCNC3=O)C(=O)COC(F)(F)F)(C1)C2` [Compound 312, (1S,3aR,6aS)-2-(4-methyl-2-oxabicyclo-[2.1.1]hexane-1-carbonyl)-N-((S)-3-oxo-1-((S)-2-oxopyrrolidin-3-yl)-4-(trifluoromethoxy)butan-2-yl)octahydrocyclo-penta[c]pyrrole-1-carboxamide]: the EC50 is 0.05 to 0.2 µM.

`CC1(C)[C@@H]2[C@@H](C(=O)N[C@@H](C[C@@H]3CCNC3=O)C(=O)COC(F)(F)F)N(C(=O)[C@H](O)C(F)(F)F)C[C@@H]21` [Compound 386, (1R,2S,5S)-6,6-dimethyl-N-((S)-3-oxo-1-((S)-2-oxopyrrolidin-3-yl)-4-(trifluoromethoxy)butan-2-yl)-3-((S)-3,3,3-trifluoro-2-hydroxypropanoyl)-3-azabicyclo[3.1.0]-hexane-2-carboxamide]: the EC50 was 0.05 to 0.2 µM.

Take `COC(CC(C)C)C(=O)N1CC2(CC2)C[C@H]1C(=O)N[C@@H](C[C@@H]1CCNC1=O)C(=O)COC(F)(F)F` (stereo partly drawn) [Compound 338, (6S)-5-(2-methoxy-4-methylpentanoyl)-N-((S)-3-oxo-1-((S)-2-oxopyrrolidin-3-yl)-4-(trifluoromethoxy)butan-2-yl)-5-azaspiro[2.4]heptane-6-carboxamide]: the EC50 was less than 0.05 µM.

`CC(C)C[C@H](NC(=O)[C@H](O)C(C)C)C(=O)N[C@@H](C[C@@H]1CCNC1=O)C(=O)COC(F)(F)F` [Compound 355, (S)-2-((R)-2-hydroxy-3-methylbutanamido)-4-methyl-N-((S)-3-oxo-1-((S)-2-oxopyrrolidin-3-yl)-4-(trifluoromethoxy)butan-2-yl)pentanamide]: the EC50 was 0.05 to 0.2 µM.

As for `CC(C)[C@@H](O)C(=O)N1C[C@@H]2CCC[C@@H]2[C@H]1C(=O)N[C@@H](C[C@@H]1CCNC1=O)C(=O)COC(F)(F)F` [Compound 359, (1S,3aR,6aS)-2-((R)-2-hydroxy-3-methylbutanoyl)-N-((S)-3-oxo-1-((S)-2-oxopyrrolidin-3-yl)-4-(trifluoromethoxy)butan-2-yl)octahydrocyclo-penta[c]pyrrole-1-carboxamide], the EC50 fell in the range of 0.05 to 0.2 µM.

Still in this test, the particulars now being: Severe acute respiratory syndrome coronavirus 2, HeLa-ACE2, 24 h, HeLa-ACE2 cells, SARS-CoV-2 infection, 24 h; read-out: EC50, uM (Hela).
As for `O=C1NCC[C@H]1C[C@H](NC(=O)[C@@H]1CC2(CC2)CN1C(=O)[C@H](O)c1ccccc1)C(=O)COC(F)(F)F` [Compound 412, (S)-5-((R)-2-hydroxy-2-phenylacetyl)-N-((S)-3-oxo-1-((S)-2-oxopyrrolidin-3-yl)-4-(trifluoromethoxy)butan-2-yl)-5-azaspiro[2.4]-heptane-6-carboxamide], the concentration for a half-maximal effect (EC50) fell in the range of 0.05 to 0.2 µM.

`O=C1NCC[C@H]1C[C@H](NC(=O)[C@@H]1[C@H]2CCC[C@H]2CN1C(=O)c1noc2c1COCC2)C(=O)COC(F)(F)F` [Compound 549, (1S,3aR,6aS)-2-(6,7-dihydro-4H-pyrano[3,4-d]isoxazole-3-carbonyl)-N-((S)-3-oxo-1-((S)-2-oxopyrrolidin-3-yl)-4-(trifluoromethoxy)butan-2-yl)octahydrocyclo-penta[c]pyrrole-1-carboxamide]: the EC50 was in the range of 0.05 to 0.2 µM.

`CC(C)(C[C@H](NC(=O)C(=O)NC12CC(F)(C1)C2)C(=O)N[C@@H](C[C@@H]1CCNC1=O)C(=O)COC(F)(F)F)C(F)F` [Compound 564, N1-((S)-5,5-difluoro-4,4-dimethyl-1-oxo-1-(((S)-3-oxo-1-((S)-2-oxopyrrolidin-3-yl)-4-(trifluoromethoxy)butan-2-yl)amino)pentan-2-yl)-N2-(3-fluorobicyclo[1.1.1]-pentan-1-yl)oxalamide]: the EC50 was less than 0.05 µM.

As to `CC(C)(F)CCC(=O)N1CC2(CC2)C[C@H]1C(=O)N[C@@H](C[C@@H]1CCNC1=O)C(=O)COC(F)(F)F` [Compound 624, (S)-5-(4-fluoro-4-methylpentanoyl)-N-((S)-3-oxo-1-((S)-2-oxopyrrolidin-3-yl)-4-(trifluoromethoxy)butan-2-yl)-5-azaspiro[2.4]heptane-6-carboxamide], the EC50 lay within 0.05 to 0.2 µM.

`O=C1NCC[C@H]1C[C@H](NC(=O)[C@@H]1C[C@@H](c2ccccc2)CN1C(=O)[C@H](O)c1ccccc1)C(=O)COC(F)(F)F` [Compound 786, (2S,4S)-1-((R)-2-hydroxy-2-phenylacetyl)-N-((S)-3-oxo-1-((S)-2-oxopyrrolidin-3-yl)-4-(trifluoromethoxy)butan-2-yl)-4-phenylpyrrolidine-2-carboxamide]: the EC50 was in the range of 0.05 to 0.2 µM.

Regarding `CCC[C@@H](O)C(=O)N1CC2(CC2)C[C@H]1C(=O)N[C@@H](C[C@@H]1CCNC1=O)C(=O)COC(F)(F)F` [Compound 766, (S)-5-((R)-2-hydroxypentanoyl)-N-((S)-3-oxo-1-((S)-2-oxopyrrolidin-3-yl)-4-(trifluoromethoxy)butan-2-yl)-5-azaspiro[2.4]heptane-6-carboxamide], the EC50 was in the range of 0.05 to 0.2 µM.

For the molecule `CC1(C)[C@@H]2[C@@H](C(=O)N[C@H](C[C@@H]3CCNC3=O)C(=O)COC(F)(F)F)N(C(=O)[C@H](O)c3ccccc3)C[C@@H]21` [Compound 715, (1R,2S,5S)-3-((R)-2-hydroxy-2-phenylacetyl)-6,6-dimethyl-N-((R)-3-oxo-1-((S)-2-oxopyrrolidin-3-yl)-4-(trifluoromethoxy)butan-2-yl)-3-azabicyclo[3.1.0]hexane-2-carboxamide], the EC50 lay within 0.05 to 0.2 µM.

Regarding `[2H]C([2H])([2H])C([2H])([2H])C([2H])([2H])C([2H])([2H])C(=O)N1CC2(CC2)C[C@H]1C(=O)N[C@@H](C[C@@H]1CCNC1=O)C(=O)COC(F)(F)F` [Compound 732, (S)-N-((S)-3-oxo-1-((S)-2-oxopyrrolidin-3-yl)-4-(trifluoromethoxy)butan-2-yl)-5-(pentanoyl-d9)-5-azaspiro[2.4]heptane-6-carboxamide], the 50% effective concentration (EC50) was less than 0.05 µM.

As to `CC(C)(O)CC(=O)N1CC2(CC2)C[C@H]1C(=O)N[C@@H](C[C@@H]1CCNC1=O)C(=O)COC(F)(F)F` [Compound 717, (S)-5-(3-hydroxy-3-methylbutanoyl)-N-((S)-3-oxo-1-((S)-2-oxopyrrolidin-3-yl)-4-(trifluoromethoxy)butan-2-yl)-5-azaspiro[2.4]heptane-6-carboxamide], the EC50 was in the range of 0.05 to 0.2 µM.

On to `CN[C@H](CC(C)C)C(=O)N1CC2(CC2)C[C@H]1C(=O)N[C@@H](C[C@@H]1CCNC1=O)C(=O)COC(F)(F)F` [Compound 660, (S)-5-(methyl-D-leucyl)-N-((S)-3-oxo-1-((S)-2-oxopyrrolidin-3-yl)-4-(trifluoromethoxy)butan-2-yl)-5-azaspiro[2.4]heptane-6-carboxamide], for which the EC50 fell in the range of 0.05 to 0.2 µM.

Turning to `CC(C)C(F)(F)CC(=O)N1CC2(CC2)C[C@H]1C(=O)N[C@@H](C[C@@H]1CCNC1=O)C(=O)COC(F)(F)F` [Compound 712, (S)-5-(3,3-difluoro-4-methylpentanoyl)-N-((S)-3-oxo-1-((S)-2-oxopyrrolidin-3-yl)-4-(trifluoromethoxy)butan-2-yl)-5-azaspiro[2.4]heptane-6-carboxamide], the EC50 was less than 0.05 µM.

As for `CC(F)(F)C(F)(F)CC(=O)N1CC2(CC2)C[C@H]1C(=O)N[C@@H](C[C@@H]1CCNC1=O)C(=O)COC(F)(F)F` [Compound 713, (S)-N-((S)-3-oxo-1-((S)-2-oxopyrrolidin-3-yl)-4-(trifluoromethoxy)butan-2-yl)-5-(3,3,4,4-tetrafluoropentanoyl)-5-azaspiro[2.4]heptane-6-carboxamide], the EC50 was 0.05 to 0.2 µM.

As to `CC(C)C[C@H](NS(=O)(=O)c1ccc2c(ccn2C)c1)C(=O)N[C@@H](C[C@@H]1CCNC1=O)C(=O)COc1c(F)c(F)cc(F)c1F` [Compound 765, (S)-4-methyl-2-((l-methyl-1H-indole)-5-sulfonamido)-N-((S)-3-oxo-1-((S)-2-oxopyrrolidin-3-yl)-4-(2,3,5,6-tetrafluorophenoxy)butan-2-yl)pentanamide], the EC50 is less than 0.05 µM.

The same test, now with this note: Severe acute respiratory syndrome coronavirus 2, HeLa-ACE2, 24 h; read-out: EC50, uM (Hela).
Regarding `CC(C)C[C@@H](O)C(=O)N1CCC[C@H]1C(=O)N[C@@H](C[C@@H]1CCNC1=O)C(=O)COC(F)(F)F` [Compound 696, (S)-1-((R)-2-hydroxy-4-methylpentanoyl)-N-((S)-3-oxo-1-((S)-2-oxopyrrolidin-3-yl)-4-(trifluoromethoxy)butan-2-yl)pyrrolidine-2-carboxamide], the EC50 was 0.05 to 0.2 µM.
